Laboratory results as given in patent publication US20220265847A1, “METHODS AND COMPOSITIONS FOR TREATING NON-SMALL CELL LUNG CANCER” (Board of Regents, The University of Texas System, priority 2019, published 2022).

What was measured:
Assay type in all cases: cell-based
[1] = system: HCC827 (EGFR mutant) cells; assay: Sensitivity of HCC827 parental cells to EGFR TKIs compared to EGFR TKI resistant (ER) variants; settings: FIG. 1
[2] = system: HCC827 cells with induced expression of ZEB1; assay: EGFR TKI sensitivity of HCC827 cells after induced ZEB1 expression (EMT induction); settings: HCC827 (EGFR TKI sensitive) cells with induced ZEB1 expression; FIG. 4B-D / 10B
Excerpt: Next, the inventors investigated the impact of EMT on CD70 expression in EGFR mutant NSCLC cell lines. The inventors induced EMT through forced expression of ZEB1 in HCC827 parental (EGFR TKI sensitive) cells. […] The inventors next evaluated whether CD70 expression was associated with a mesenchymal phenotype in NSCLC cell lines and human lung adenocarcinomas using the TCGA database.

[3] = system: HCC4006 (EGFR mutant) cells; assay: Sensitivity of HCC4006 parental cells to EGFR TKIs compared to EGFR TKI resistant (ER) variants; settings: FIG. 1
Excerpt: While EGFR mutant NSCLC patients are initially responsive to EGFR tyrosine kinase inhibitors (TKI), resistant disease inevitably emerges. The inventors derived a panel of NSCLC cell lines with acquired resistance to EGFR TKIs. […] CD70 is typically expressed on T-cells and B-cells, but can also be expressed by some malignant cells. Expression of CD70 by tumor cells is thought to contribute to an immunosuppressive environment by affecting/attracting regulatory T cells and promoting T cell apoptosis and exhaustion.
While EGFR mutant NSCLC patients are initially responsive to EGFR tyrosine kinase inhibitors (TKI), resistant disease inevitably emerges. The inventors derived a panel of NSCLC cell lines with acquired resistance to EGFR TKIs. […] Once tumors were visualized by CT imaging, doxycycline was withdrawn from a subset of animals to mimic EGFR inhibition. […] Tumors were collected an CD70 expression was analyzed by immunohistochemistry. […] Next, the inventors evaluated CD70 expression in EGFR mutant EGFRTKI naïve NSCLC clinical specimens and EGFR mutant NSCLC specimens collected after EGFR TKI resistance.

H1975 OR5 = assay: CD70 ADC relative cell viability
Excerpt: (§1) FIG. 14A-C. CD70 antibody-drug conjugates (ADCs) target CD70+ EGFR TKI resistant cell in vitro.
(§2) To determine whether CD70 antibody drug conjugates (ADCs) are a valid approach for targeting EGFR TKI resistant cells, the inventors treated H1975 cells (CD70 low and EGFR TKI sensitive) and H1975 OR5 and H1975 OR16 (both EGFR TKI resistant and CD70 high) with increasing concentrations of the CD70 ADCs cuzatuzumab-MMAE or vorsetuzumab-MMAE. […] The inventors further observed an additive anti-tumor cell effect when osimertinib was combined with anti-CD70 ADCs. (FIG. 15).

H1975 OR16 = assay: CD70 ADC relative cell viability; settings: H1975 OR16 vs H1975 parental (CD70 low); increasing concentrations; FIG. 14 and 16
Excerpt: as §1, §2

[4] = system: HCC4006 osimertinib-resistant (OR) cells; assay: Soluble CD27 stimulation of CD70, downstream signalling by Western blotting; settings: FIG. 12
Description: FIG. 12. Stimulation of CD70 activates signal transduction pathways in EGFR TKI resistant cells. HCC4006 osimertinib-resistant (OR) cells were treated with soluble CD27, the binding partner of CD70, and the effect on downstream signal transduction pathways was evaluated by Western blotting.
Binding of CD27 to CD70 induces activation of signal transduction pathways downstream of CD70. To investigate the potential impact of CD70 signaling on EGFR TKI resistant cells, the inventors stimulated EGR TKI resistant cells with recombinant soluble CD27.

C#Cc1cccc(Nc2ncnc3cc(OCCOC)c(OCCOC)cc23)c1 [erlotinib]
sensitivity to EGFR TKI [1]: sensitive
sensitivity to EGFR TKI after ZEB1 expression [2]: resistant
sensitivity to EGFR TKI [3]: sensitive

C=CC(=O)Nc1cc(Nc2nccc(-c3cn(C)c4ccccc34)n2)c(OC)cc1N(C)CCN(C)C [osimertinib]
sensitivity to EGFR TKI [1]: sensitive
sensitivity to EGFR TKI after ZEB1 expression [2]: resistant
sensitivity to EGFR TKI [3]: sensitive

B1: vorsetuzumab-MMAE (conjugate, chains of the INN, looked up)
VH: QVQLVQSGAEVKKPGASVKVSCKASGYTFTNYGMNWVRQAPGQGLKWMGWINTYTGEPTYADAFKGRVTMTRDTSISTAYMELSRLRSDDTAVYYCARDYGDYGMDYWGQGTTVTVSS
VL: DIVMTQSPDSLAVSLGERATINCRASKSVSTSGYSFMHWYQQKPGQPPKLLIYLASNLESGVPDRFSGSGSGTDFTLTISSLQAEDVAVYYCQHSREVPWTFGQGTKVEIK
modifications: MMAE payload
anti-tumor cell activity (relative cell viability) (H1975 OR5; H1975 OR5, CD70 high, EGFR TKI resistant, FIG. 14): anti-tumor cell activity
sensitivity to CD70 ADC versus H1975 parental cells (H1975 OR5; H1975 OR5 vs H1975 parental (CD70 low), increasing concentrations, FIG. 14 and 16): more sensitive
sensitivity to CD70 ADC versus H1975 parental cells (H1975 OR16): more sensitive

B2: soluble CD27: recombinant soluble CD27, the binding partner of CD70 (protein, UniProt P26842 20-191, looked up)
extracellular domain: ATPAPKSCPERHYWAQGKLCCQMCEPGTFLVKDCDQHRKAAQCDPCIPGVSFSPDHHTRPHCESCRHCNSGLLVRNCTITANAECACRNGWQCRDKECTECDPLPNPSLTARSSQALSPHPQPTHLPYVSEMLEARTAGHMQTLADFRQLPARTLSTHWPPQRSLCSSDFIR
modifications: extracellular domain
effect on downstream signal transduction pathways [4]: phosphorylation of Akt and ERK
